Each block holds one molecule with its values, some of them ahead of it. Activity calls are given as the source filed them. No cut-off for these calls is given here.
Columns and labels:
[1] = Antifibrotic activity in rat renal mesangial cells assessed as inhibition of TGF-beta1-induced [3H]-proline incorporation into collagen at 30 uM treated 4 hrs before TGF-beta1 addition measured after 44 hrs by liquid scintillation counting; assay type: functional, cell-based
[2] = Antifibrotic activity in rat renal mesangial cells assessed as inhibition of TGF-beta1-induced [3H]-proline incorporation into collagen at 10 uM treated 4 hrs before TGF-beta1 addition measured after 44 hrs by liquid scintillation counting; assay type: functional, cell-based
Liver microsome = assay: Metabolic stability in human liver microsomes at 1 uM after 60 mins by LC/MS analysis in presence of NADPH; assay type: ADME; details: 1 h
Rattus norvegicus [3] = assay: Hepatotoxicity in Sprague-Dawley rat assessed as effect on serum bilirubin level at 50 to 1000 mg/kg, po bid for 2 weeks; assay type: toxicity, organism-based; design: dose 50-1000 mg/kg, route oral; details: in vivo, 336 h
Rattus norvegicus [4] = assay: Reduction of albuminuria in (mRen-2)27 rat streptozotocin-induced diabetic nephropathy model assessed as reduction of albumin level in urine at 200 mg/kg, po qd for 8 weeks administered 8 weeks post-streptozotocin treatment by radioimmunoassay; assay type: functional, organism-based; design: dose 200 mg/kg
Rattus norvegicus [5] = assay: Hepatotoxicity in Sprague-Dawley rat assessed as effect on serum ALT level at 50 to 1000 mg/kg, po bid for 2 weeks; assay type: toxicity, organism-based; design: dose 50-1000 mg/kg, route oral; details: in vivo, 336 h
Rattus norvegicus [6] = assay: Renal toxicity in Sprague-Dawley rat assessed as effect on serum urate level at 50 to 1000 mg/kg, po bid for 2 weeks; assay type: organism-based; design: dose 50-1000 mg/kg, route oral; details: in vivo, 336 h
Rattus norvegicus [7] = assay: Renal toxicity in Sprague-Dawley rat assessed as effect on serum creatinine level at 50 to 1000 mg/kg, po bid for 2 weeks; assay type: organism-based; design: dose 50-1000 mg/kg, route oral; details: in vivo, 336 h
[8] = Oral bioavailability in Sprague-Dawley rat at 20 mg/kg; assay type: ADME, organism-based; details: in vivo
Rattus norvegicus [9] = assay: (§1) Tmax in Sprague-Dawley rat at 20 mg/kg, po; assay type: ADME, organism-based; design: dose 20 mg/kg, route oral; details: in vivo
Rattus norvegicus [10] = assay: (§2) AUC (0 to infinity) in Sprague-Dawley rat at 20 mg/kg, po; assay type: ADME, organism-based, Plasma; design: dose 20 mg/kg, route oral, time infinity; details: in vivo
Rattus norvegicus [11] = assay: (§3) Cmax in Sprague-Dawley rat at 20 mg/kg, po; assay type: ADME, organism-based; design: dose 20 mg/kg, route oral; details: in vivo
[12] = Drug level in Sprague-Dawley rat urine at 20 mg/kg, po; assay type: ADME, organism-based; design: dose 20 mg/kg, route oral; details: read-out: Drug uptake
Rattus norvegicus [13] = assay: (§4) Apparent half life in Sprague-Dawley rat at 20 mg/kg, po; assay type: ADME, organism-based; design: dose 20 mg/kg, route oral; details: in vivo
[14] = AUC (0 to infinity) in Sprague-Dawley rat at 5 mg/kg, iv; assay type: ADME, organism-based; design: time infinity, dose 5 mg/kg, route intravenous; details: plasma
[15] = Volume of distribution at steady state in Sprague-Dawley rat at 5 mg/kg, iv; assay type: ADME, organism-based; design: dose 5 mg/kg, route intravenous; details: in vivo, read-out: Vdss
[16] = Drug level in Sprague-Dawley rat urine at 5 mg/kg, iv; assay type: ADME, organism-based; design: dose 5 mg/kg, route intravenous; details: read-out: Drug uptake
[17] = Plasma clearance in Sprague-Dawley rat at 5 mg/kg, iv; assay type: ADME, organism-based; design: dose 5 mg/kg, route intravenous
[18] = Apparent half life in Sprague-Dawley rat at 5 mg/kg, iv; assay type: ADME, organism-based; design: dose 5 mg/kg, route intravenous; details: in vivo, read-out: t1/2(app) (converted)
Rattus norvegicus [19] = assay: Reduction of albuminuria in (mRen-2)27 rat streptozotocin-induced diabetic nephropathy model assessed as reduction of albumin level in urine at 400 mg/kg, po qd for 8 weeks administered 8 weeks post-streptozotocin treatment by radioimmunoassay; assay type: functional, organism-based; design: dose 400 mg/kg
[20] = as §1; assay type: ADME, organism-based; design: dose 20 mg/kg, route oral; details: Sprague-Dawley, in vivo
[21] = as §2; assay type: ADME, organism-based, Plasma; design: dose 20 mg/kg, route oral, time infinity; details: Sprague-Dawley, plasma
[22] = as §3; assay type: ADME, organism-based; design: dose 20 mg/kg, route oral; details: Sprague-Dawley, in vivo
[23] = as §4; assay type: ADME, organism-based; design: dose 20 mg/kg, route oral; details: Sprague-Dawley, in vivo

Structure (SMILES): C#CCOc1cc(/C=C/C(=O)Nc2ccccc2C(=O)O)ccc1OC(F)F
inhibition [1]: 100%
inhibition [2]: 73%

Structure (SMILES): O=C(/C=C/c1ccc2c(c1)OC(F)(F)O2)Nc1ccccc1C(=O)O
inhibition [1]: 0%

Structure (SMILES): O=C(/C=C/c1ccc(OC(F)(F)C(F)F)cc1)Nc1ccccc1C(=O)O
inhibition [2]: 84%

Structure (SMILES): C#CCOc1cc(/C=C/C(=O)Nc2ccccc2C(=O)O)ccc1OC
inhibition [1]: 55%
inhibition [2]: 20%

Stability (Liver microsome): Stable
bioavailability [8]: 73%
Tmax (Rattus norvegicus [9]): 2.5 h
AUC (Rattus norvegicus [10]): 2691 µM·h
Cmax (Rattus norvegicus [11]): 200 µM
dose excreted [12]: 1.7%
t1/2(app) (Rattus norvegicus [13]): 5.4 h
AUC(0-inf) [14]: 894 µM·h
Vd [15]: 0.1 L/kg
dose excreted [16]: 3.3%
clearance [17]: 0.2 mL/min/kg
half-life [18]: 7.8 h
Structure (SMILES): O=C(/C=C/c1ccc(OC(F)F)c(OC(F)F)c1)Nc1ccccc1C(=O)O
Activity (Rattus norvegicus [3]): Non-toxic
Activity (Rattus norvegicus [4]): Active
Activity (Rattus norvegicus [5]): Non-toxic
Activity (Rattus norvegicus [6]): Non-toxic
Activity (Rattus norvegicus [7]): Non-toxic
inhibition [1]: 100%
inhibition [2]: 60%

Structure (SMILES): Nc1ccccc1NC(=O)/C=C/c1ccc(OC(F)F)c(OC(F)F)c1
inhibition [1]: 79%
inhibition [2]: 57%

Structure (SMILES): O=C(/C=C/c1ccc(OC(F)(F)F)c(F)c1)Nc1ccccc1C(=O)O
inhibition [2]: 55%

Structure (SMILES): COc1ccc(/C=C/C(=O)Nc2ccccc2C(=O)O)cc1OC(F)(F)F
inhibition [1]: 100%
inhibition [2]: 92%

Structure (SMILES): COc1cc(/C=C/C(=O)Nc2ccccc2C(=O)O)cc(OC)c1OC(F)F
inhibition [1]: 80%
inhibition [2]: 24%

Structure (SMILES): O=C(/C=C/c1ccc(OC(F)F)c(OC(F)F)c1)Nc1ccc(Br)cc1C(=O)O
inhibition [2]: 100%

Structure (SMILES): COc1cc(/C=C/C(=O)Nc2ccccc2C(=O)O)ccc1OC(F)F
inhibition [1]: 70%
inhibition [2]: 20%

bioavailability [8]: 125%
Tmax [20]: 1.75 h
AUC(0-inf) [21]: 652 µM·h
Cmax [22]: 118 µM
dose excreted [12]: 1.9%
half-life [23]: 3.3 h
AUC(0-inf) [14]: 110 µM·h
Vd [15]: 0.3 L/kg
dose excreted [16]: 2.4%
clearance [17]: 2 mL/min/kg
half-life [18]: 3.1 h
Structure (SMILES): COc1ccc(/C=C/C(=O)Nc2ccccc2C(=O)O)cc1OC [TRANILAST]
Activity (Rattus norvegicus [19]): Active
inhibition [1]: 40%
inhibition [2]: 15%

Structure (SMILES): O=C(O)c1ccccc1NC(=O)C1CC1c1ccc(OC(F)F)c(OC(F)F)c1 (centres undefined)
inhibition [1]: 90%
inhibition [2]: 70%

Structure (SMILES): C/C(=C\c1ccc(OC(F)F)c(OC(F)F)c1)C(=O)Nc1ccccc1C(=O)O
inhibition [2]: 100%

Structure (SMILES): O=S(=O)(/C=C/c1ccc(OC(F)F)c(OC(F)F)c1)Nc1ccccc1
inhibition [2]: 0%

Structure (SMILES): C/C(=C\C(=O)Nc1ccccc1C(=O)O)c1ccc(OC(F)F)c(OC(F)F)c1
inhibition [2]: 100%
